Reference: the supplement of paper PMC10307832

How the values were obtained:
Assay in all cases: relative viability (nuclei count vs DMSO), 5 days (fraction); higher = more cells survive
NCI-H650 = system: NCI-H650
Summary of the method: (§1)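 Lung cancer cell lines, seeded in 1536-well plates, were treated the following day by pin tool with a single drug or with five library-drug doses (not always all listed) in √10 steps on top of a fixed anchor-drug dose. Cells were fixed and nuclei stained in one step after 5 days, and nuclei were counted. Relative viability is the nuclei count for treated wells divided by that for vehicle wells, reported as medians of duplicate plates.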

SW 1573 = system: SW 1573
Summary of the method: as §1

NCI-H2023 = system: NCI-H2023
Summary of the method: as §1

NCI-H1993 = system: NCI-H1993
Summary of the method: as §1

NCI-H1915 = system: NCI-H1915
Summary of the method: as §1

NCI-H838 = system: NCI-H838
Summary of the method: as §1

PC-14 = system: PC-14
Summary of the method: as §1

NCI-H2126 = system: NCI-H2126
Summary of the method: as §1

EPLC-272H = system: EPLC-272H
Summary of the method: as §1

HCC-15 = system: HCC-15
Summary of the method: as §1

ABC-1 = system: ABC-1
Summary of the method: as §1

HOP-62 = system: HOP-62
Summary of the method: as §1

UMC-11 = system: UMC-11
Summary of the method: as §1

LC-2-ad = system: LC-2-ad
Summary of the method: as §1

NCI-H2085 = system: NCI-H2085
Summary of the method: as §1

LU99A = system: LU99A
Summary of the method: as §1

HARA = system: HARA
Summary of the method: as §1

NCI-H2347 = system: NCI-H2347
Summary of the method: as §1

COR-L23 = system: COR-L23
Summary of the method: as §1

NCI-H1355 = system: NCI-H1355
Summary of the method: as §1

NCI-H1651 = system: NCI-H1651
Summary of the method: as §1

`COc1cc2nccc(Oc3ccc(NC(=O)Nc4cc(C)on4)c(Cl)c3)c2cc1OC` [Tivozanib] + Cc1nc(Nc2ncc(C(=O)Nc3c(C)cccc3Cl)s2)cc(N2CCN(CCO)CC2)n1 [Dasatinib] (partner 0.075 µM) was tested. Which relative viability (NCI-H650; first compound 0.005 µM) did it give?
The relative viability was 0.344.

And the relative viability (NCI-H650; first compound 0.01581 µM)?
The relative viability was 0.509.

What about the relative viability (NCI-H650; first compound 0.05 µM) of the same molecule?
The relative viability was 0.447.

What about the relative viability (NCI-H650; first compound 0.1581 µM) of the same molecule?
Its relative viability is 0.368.

What about the relative viability (NCI-H650; first compound 0.5 µM) of the same molecule?
Its relative viability is 0.387.

And the relative viability (SW 1573; first compound 0.005 µM)?
Its relative viability is 0.534.

And the relative viability (SW 1573; first compound 0.01581 µM)?
The relative viability was 0.566.

What about the relative viability (SW 1573; first compound 0.05 µM) of the same molecule?
The relative viability was 0.46.

And the relative viability (SW 1573; first compound 0.1581 µM)?
The relative viability was 0.513.

And the relative viability (SW 1573; first compound 0.5 µM)?
The relative viability was 0.381.

What about the relative viability (NCI-H2023; first compound 0.005 µM) of the same molecule?
The relative viability was 0.515.

What about the relative viability (NCI-H2023; first compound 0.01581 µM) of the same molecule?
The relative viability was 0.577.

And the relative viability (NCI-H2023; first compound 0.05 µM)?
Its relative viability is 0.55.

What about the relative viability (NCI-H2023; first compound 0.1581 µM) of the same molecule?
The relative viability was 0.561.

And the relative viability (NCI-H2023; first compound 0.5 µM)?
Its relative viability is 0.523.

And the relative viability (NCI-H1993; first compound 0.005 µM)?
Its relative viability is 0.609.

And the relative viability (NCI-H1993; first compound 0.01581 µM)?
The relative viability was 0.605.

And the relative viability (NCI-H1993; first compound 0.05 µM)?
Its relative viability is 0.692.

What about the relative viability (NCI-H1993; first compound 0.1581 µM) of the same molecule?
The relative viability was 0.496.

And the relative viability (NCI-H1993; first compound 0.5 µM)?
The relative viability was 0.504.

And the relative viability (NCI-H1915; first compound 0.005 µM)?
The relative viability was 0.279.

And the relative viability (NCI-H1915; first compound 0.01581 µM)?
The relative viability was 0.3.

And the relative viability (NCI-H1915; first compound 0.05 µM)?
Its relative viability is 0.3.

And the relative viability (NCI-H1915; first compound 0.1581 µM)?
The relative viability was 0.289.

What about the relative viability (NCI-H1915; first compound 0.5 µM) of the same molecule?
Its relative viability is 0.272.

What about the relative viability (NCI-H838; first compound 0.005 µM) of the same molecule?
Its relative viability is 0.212.

What about the relative viability (NCI-H838; first compound 0.01581 µM) of the same molecule?
The relative viability was 0.31.

And the relative viability (NCI-H838; first compound 0.05 µM)?
The relative viability was 0.292.

What about the relative viability (NCI-H838; first compound 0.1581 µM) of the same molecule?
The relative viability was 0.307.

And the relative viability (NCI-H838; first compound 0.5 µM)?
Its relative viability is 0.295.

And the relative viability (PC-14; first compound 0.005 µM)?
Its relative viability is 0.224.

What about the relative viability (PC-14; first compound 0.01581 µM) of the same molecule?
Its relative viability is 0.25.

And the relative viability (PC-14; first compound 0.05 µM)?
The relative viability was 0.255.

What about the relative viability (PC-14; first compound 0.1581 µM) of the same molecule?
Its relative viability is 0.316.

And the relative viability (PC-14; first compound 0.5 µM)?
Its relative viability is 0.239.

What about the relative viability (NCI-H2126; first compound 0.005 µM) of the same molecule?
Its relative viability is 0.499.

And the relative viability (NCI-H2126; first compound 0.01581 µM)?
Its relative viability is 0.567.

What about the relative viability (NCI-H2126; first compound 0.05 µM) of the same molecule?
Its relative viability is 0.636.

What about the relative viability (NCI-H2126; first compound 0.1581 µM) of the same molecule?
Its relative viability is 0.412.

What about the relative viability (NCI-H2126; first compound 0.5 µM) of the same molecule?
Its relative viability is 0.494.

And the relative viability (EPLC-272H; first compound 0.005 µM)?
Its relative viability is 0.378.

And the relative viability (EPLC-272H; first compound 0.01581 µM)?
Its relative viability is 0.375.

What about the relative viability (EPLC-272H; first compound 0.05 µM) of the same molecule?
Its relative viability is 0.447.

And the relative viability (EPLC-272H; first compound 0.1581 µM)?
Its relative viability is 0.263.

What about the relative viability (EPLC-272H; first compound 0.5 µM) of the same molecule?
Its relative viability is 0.413.

What about the relative viability (HCC-15; first compound 0.005 µM) of the same molecule?
The relative viability was 0.534.

What about the relative viability (HCC-15; first compound 0.01581 µM) of the same molecule?
The relative viability was 0.579.

And the relative viability (HCC-15; first compound 0.05 µM)?
Its relative viability is 0.621.

And the relative viability (HCC-15; first compound 0.1581 µM)?
The relative viability was 0.67.

And the relative viability (HCC-15; first compound 0.5 µM)?
The relative viability was 0.607.

What about the relative viability (ABC-1; first compound 0.005 µM) of the same molecule?
Its relative viability is 0.649.

What about the relative viability (ABC-1; first compound 0.01581 µM) of the same molecule?
The relative viability was 0.583.

And the relative viability (ABC-1; first compound 0.05 µM)?
Its relative viability is 0.729.

And the relative viability (ABC-1; first compound 0.1581 µM)?
Its relative viability is 0.489.

What about the relative viability (ABC-1; first compound 0.5 µM) of the same molecule?
The relative viability was 0.323.

What about the relative viability (HOP-62; first compound 0.005 µM) of the same molecule?
The relative viability was 0.638.

What about the relative viability (HOP-62; first compound 0.01581 µM) of the same molecule?
Its relative viability is 0.668.

And the relative viability (HOP-62; first compound 0.05 µM)?
The relative viability was 0.633.

What about the relative viability (HOP-62; first compound 0.1581 µM) of the same molecule?
The relative viability was 0.583.

What about the relative viability (HOP-62; first compound 0.5 µM) of the same molecule?
Its relative viability is 0.698.

What about the relative viability (UMC-11; first compound 0.005 µM) of the same molecule?
The relative viability was 0.416.

What about the relative viability (UMC-11; first compound 0.01581 µM) of the same molecule?
The relative viability was 0.46.

And the relative viability (UMC-11; first compound 0.05 µM)?
Its relative viability is 0.465.

What about the relative viability (UMC-11; first compound 0.5 µM) of the same molecule?
The relative viability was 0.38.

And the relative viability (LC-2-ad; first compound 0.005 µM)?
Its relative viability is 0.458.

And the relative viability (LC-2-ad; first compound 0.01581 µM)?
Its relative viability is 0.504.

What about the relative viability (LC-2-ad; first compound 0.05 µM) of the same molecule?
Its relative viability is 0.615.

And the relative viability (LC-2-ad; first compound 0.1581 µM)?
Its relative viability is 0.268.

And the relative viability (LC-2-ad; first compound 0.5 µM)?
Its relative viability is 0.208.

And the relative viability (NCI-H2085; first compound 0.005 µM)?
Its relative viability is 0.226.

What about the relative viability (NCI-H2085; first compound 0.01581 µM) of the same molecule?
The relative viability was 0.207.

And the relative viability (NCI-H2085; first compound 0.05 µM)?
The relative viability was 0.233.

What about the relative viability (NCI-H2085; first compound 0.1581 µM) of the same molecule?
The relative viability was 0.315.

And the relative viability (NCI-H2085; first compound 0.5 µM)?
Its relative viability is 0.224.

And the relative viability (LU99A; first compound 0.005 µM)?
The relative viability was 0.356.

And the relative viability (LU99A; first compound 0.01581 µM)?
The relative viability was 0.599.

And the relative viability (LU99A; first compound 0.05 µM)?
The relative viability was 0.656.

And the relative viability (LU99A; first compound 0.1581 µM)?
Its relative viability is 0.489.

What about the relative viability (LU99A; first compound 0.5 µM) of the same molecule?
The relative viability was 0.474.

And the relative viability (HARA; first compound 0.005 µM)?
Its relative viability is 0.242.

And the relative viability (HARA; first compound 0.01581 µM)?
Its relative viability is 0.269.

And the relative viability (HARA; first compound 0.05 µM)?
Its relative viability is 0.286.

What about the relative viability (HARA; first compound 0.1581 µM) of the same molecule?
The relative viability was 0.19.

And the relative viability (HARA; first compound 0.5 µM)?
The relative viability was 0.251.

What about the relative viability (NCI-H2347; first compound 0.01581 µM) of the same molecule?
Its relative viability is 0.308.

What about the relative viability (NCI-H2347; first compound 0.05 µM) of the same molecule?
Its relative viability is 0.294.

What about the relative viability (NCI-H2347; first compound 0.5 µM) of the same molecule?
Its relative viability is 0.281.

What about the relative viability (COR-L23; first compound 0.005 µM) of the same molecule?
The relative viability was 0.484.

And the relative viability (COR-L23; first compound 0.01581 µM)?
Its relative viability is 0.515.

What about the relative viability (COR-L23; first compound 0.05 µM) of the same molecule?
The relative viability was 0.462.

And the relative viability (COR-L23; first compound 0.1581 µM)?
Its relative viability is 0.485.

What about the relative viability (COR-L23; first compound 0.5 µM) of the same molecule?
The relative viability was 0.452.

And the relative viability (NCI-H1355; first compound 0.005 µM)?
The relative viability was 0.672.

What about the relative viability (NCI-H1355; first compound 0.01581 µM) of the same molecule?
Its relative viability is 0.689.

And the relative viability (NCI-H1355; first compound 0.05 µM)?
Its relative viability is 0.787.

What about the relative viability (NCI-H1355; first compound 0.1581 µM) of the same molecule?
The relative viability was 0.413.

What about the relative viability (NCI-H1355; first compound 0.5 µM) of the same molecule?
Its relative viability is 0.691.

What about the relative viability (NCI-H1651; first compound 0.005 µM) of the same molecule?
The relative viability was 0.291.

And the relative viability (NCI-H1651; first compound 0.01581 µM)?
The relative viability was 0.437.

And the relative viability (NCI-H1651; first compound 0.05 µM)?
Its relative viability is 0.457.

And the relative viability (NCI-H1651; first compound 0.1581 µM)?
Its relative viability is 0.36.

What about the relative viability (NCI-H1651; first compound 0.5 µM) of the same molecule?
The relative viability was 0.377.
